# Several values for one entry are separate records, joined by “and”; a condition that tells them apart may be missing. Equal entries are not always repeated. Where two headings read alike, the source gives them in different places.
# Experiments:
# [1] = tested on: ATF6 activity in Hela ATF6 reporter cells; assay: Endoplasmic reticulum stress assay (ATF6 Renilla luciferase reporter, tunicamycin); type: cell-based; conditions: for ATF6 activity (tunicamycin-induced endoplasmic reticulum stress): Hela ATF6 reporter cells, tunicamycin 100 ng/mL, 18 h
# How it was run: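 HeLa ATF6 Renilla reporter cells were pretreated 4 h with compounds in 0.1% DMSO, then stimulated with tunicamycin (100 ng/mL) for 18 h. Renilla luminescence (DualGlo) was normalized to 0.1% DMSO control; five independent experiments.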
# CDK2 = target: T1, CDK2 (Homo sapiens, UniProt P24941); assay: Liability panel screening by DSF: CDK2; type: binding; conditions: DSF, 20 µM, n=2; read-out: Mean ΔTM CDK2
# T1 construct: made in house
# How it was run: (§1)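 Thermal shift: in-house recombinant protein at 2 µM in 10 mM HEPES pH 7.5 with 500 mM NaCl, SYPRO Orange 1:1000, heated at 3 °C/min to 85 °C in technical duplicates. Tm is the Boltzmann inflection point, reported as ∆Tm in K.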
# Gal4-VP16 = type: cell-based; conditions: vs. DMSO ctrl, single replicates n=1-3
# BRD4 = target: T2, BRD4 (Homo sapiens, UniProt O60885); assay: Liability panel screening by DSF: BRD4; type: binding; conditions: DSF, 20 µM, n=2; read-out: Mean ΔTM BRD4
# T2 construct: This panel comprised ten highly ligandable kinases and bromodomains; made in house
# How it was run: as §1
# [2] = tested on: NF-κB activity in HEK293 NF-κB reporter cells; assay: NF-kB activity assay (GFP reporter, ionomycin/PMA); type: cell-based; conditions: for Mean NFκB response: n=3
# How it was run: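 HEK293 NF-κB GFP reporter cells given compound in 0.1% DMSO for 4 h, then stimulated with ionomycin 100 ng/mL plus PMA 10 ng/mL. Imaged every 90 min over 24 h; GFP-positive cell count normalized to confluence, three independent biological replicates.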
# HEK293T cells [3] = assay: Cytotoxicity: apoptosis induction (caspase-3/7 DEVD fluorogenic DNA dye); conditions: HEK293T, 24 h; for Apoptosis induction [AI]: apoptotic cell count normalized to 0.1% DMSO, single replicates
# ABL1 = target: T3, ABL1 (Homo sapiens, UniProt P00519); assay: Liability panel screening by DSF: ABL1; type: binding; conditions: DSF, 20 µM, n=2; read-out: Mean ΔTM ABL1
# T3 construct: made in house
# T3 sequence (P00519 whole entry, species assumed): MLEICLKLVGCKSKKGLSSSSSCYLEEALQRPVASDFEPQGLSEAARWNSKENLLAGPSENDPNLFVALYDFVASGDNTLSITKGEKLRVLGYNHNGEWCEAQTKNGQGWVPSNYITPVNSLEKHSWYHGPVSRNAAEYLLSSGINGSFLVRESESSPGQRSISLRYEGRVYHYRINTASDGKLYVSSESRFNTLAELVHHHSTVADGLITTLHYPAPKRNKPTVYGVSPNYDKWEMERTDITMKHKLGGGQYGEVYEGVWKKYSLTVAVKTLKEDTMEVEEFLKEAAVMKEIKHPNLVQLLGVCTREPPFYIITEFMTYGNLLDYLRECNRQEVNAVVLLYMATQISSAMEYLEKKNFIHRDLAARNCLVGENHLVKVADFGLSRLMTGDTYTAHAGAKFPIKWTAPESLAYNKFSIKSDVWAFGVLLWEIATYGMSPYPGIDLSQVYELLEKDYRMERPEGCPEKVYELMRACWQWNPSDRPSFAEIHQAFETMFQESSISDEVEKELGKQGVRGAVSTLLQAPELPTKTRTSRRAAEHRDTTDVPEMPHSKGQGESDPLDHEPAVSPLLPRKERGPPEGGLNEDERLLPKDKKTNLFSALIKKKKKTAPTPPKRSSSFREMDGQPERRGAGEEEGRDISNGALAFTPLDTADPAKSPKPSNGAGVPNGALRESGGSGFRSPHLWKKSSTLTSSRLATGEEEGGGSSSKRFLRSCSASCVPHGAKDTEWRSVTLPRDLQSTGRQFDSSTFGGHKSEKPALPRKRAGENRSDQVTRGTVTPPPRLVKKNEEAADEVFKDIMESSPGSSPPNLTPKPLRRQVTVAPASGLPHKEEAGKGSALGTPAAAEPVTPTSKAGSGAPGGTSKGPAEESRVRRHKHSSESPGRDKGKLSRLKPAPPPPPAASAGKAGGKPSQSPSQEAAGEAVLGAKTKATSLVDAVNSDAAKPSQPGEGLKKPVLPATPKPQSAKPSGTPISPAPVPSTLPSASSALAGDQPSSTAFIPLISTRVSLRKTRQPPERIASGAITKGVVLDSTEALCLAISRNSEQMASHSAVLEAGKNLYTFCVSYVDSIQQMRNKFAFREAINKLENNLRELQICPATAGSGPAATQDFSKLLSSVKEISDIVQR
# How it was run: as §1
# GSK3B = target: T4, GSK3B (Homo sapiens, UniProt P49841); assay: Liability panel screening by DSF: GSK3B; type: binding; conditions: DSF, 20 µM, n=2; read-out: Mean ΔTM GSK3B
# T4 construct: made in house
# T4 sequence (P49841 whole entry, species assumed): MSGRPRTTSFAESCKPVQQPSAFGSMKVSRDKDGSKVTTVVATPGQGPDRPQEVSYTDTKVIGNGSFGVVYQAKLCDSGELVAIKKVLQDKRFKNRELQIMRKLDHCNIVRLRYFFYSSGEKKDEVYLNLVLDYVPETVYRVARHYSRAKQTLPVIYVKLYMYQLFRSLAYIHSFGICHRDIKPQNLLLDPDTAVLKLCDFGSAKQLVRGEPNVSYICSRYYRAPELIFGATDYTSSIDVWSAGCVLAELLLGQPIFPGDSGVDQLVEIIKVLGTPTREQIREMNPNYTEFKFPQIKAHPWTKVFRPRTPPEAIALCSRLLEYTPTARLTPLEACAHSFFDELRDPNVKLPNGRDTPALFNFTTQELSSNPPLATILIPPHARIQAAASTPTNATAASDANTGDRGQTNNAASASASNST
# HEK293T cells [4] = assay: Cytotoxicity: growth-rate (change in confluence over 24 h); conditions: normalized to 0.1% DMSO control, single replicates (n=1...)
# Protocol: Cells were incubated with the test compounds at the indicated concentrations solubilized with 0.1% DMSO for 24 h. Growth-rate was determined based on the change in confluence over 24 h normalized to the change in confluence of cells treated with the 0.1% DMSO control (n = 10). Metabolic activity was determined with a water-soluble tetrazolium-8 (WST-8) assay (n = 8) after 24 h treatment. Apoptotic cells were detected with a fluorogenic DNA dye coupled to the caspase-3/7 recognition sequence (DEVD) after 24 h treatment and the apoptotic cell count was normalized to 0.1% DMSO treated cells (n = 6).
# HEK293T cells (German Collection of Microorganisms and Cell Culture GmbH, DSMZ; #ACC305) were cultured in DMEM high glucose, supplemented with 10% fetal calf serum (FCS), sodium pyruvate (1 mM), penicillin (100 µ/mL) and streptomycin (100 µg/mL) at 37 °C and 5% (v/v) CO2, and seeded in pre-coated (10 µg/mL collagen G solution (Merck KgaA; #L7213) for 30 min at 37 °C) 96-well plates (2 × 10^5 cells per well). After 24 h, the cells were treated with the respective NR3 CG compound candidate at the recommended concentration, bexarotene (100 µM) or doxorubicin (30 µM) as positive controls in DMEM high glucose supplemented with 0.1% FCS, penicillin (100 µ/mL), streptomycin (100 µg/mL) and 0.1% DMSO, or 0.1% DMSO alone as an untreated control. Each sample was prepared in at least four biologically independent replicates. […] Thereafter, the medium was aspirated and the cells were incubated for 3 h with 90 µL DMEM high glucose supplemented with 0.2% FCS, penicillin (100 µ/mL) and streptomycin (100 µg/mL) and additionally containing 10 µL Cell Counting Kit 8 solution (CCK-8; MedChemExpress, Monmouth Junction, New York, USA; #HY-K0301), and absorbance was measured at 1 h, 2 h and 3 h of incubation at 450 nm on a Tecan Spark Cyto to assess metabolic activity of the cells. Before drug administration, after the first medium exchange, 24 h after drug administration, and after fluorescence imaging cell confluence was assessed using the Tecan Spark Cyto, to account for changes in cell confluence due to drug administration and cell handling. Compound effects on cell confluence, apoptosis, metabolic activity and necrosis were normalized to the vehicle control of each biological replicate individually.
# HEK293T cells [5] = assay: Cytotoxicity: necrosis induction (red fluorescent dye for permeable plasma membranes); type: cell-based; conditions: 24 h, necrotic cell count normalized to 0.1% DMSO, single replicates;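 also: compounds applied in DMEM high glucose with 0.1% FCS and 0.1% DMSO, necrotic HEK293T cells counted by red staining of cells whose plasma membranes had become permeable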
# CSNK1D = target: T5, CSNK1D (Homo sapiens, UniProt P48730); assay: Liability panel screening by DSF: CSNK1D; type: binding; conditions: DSF, 20 µM, n=2; read-out: Mean ΔTM CSNK1D
# T5 construct: made in house
# T5 sequence (P48730 whole entry, species assumed): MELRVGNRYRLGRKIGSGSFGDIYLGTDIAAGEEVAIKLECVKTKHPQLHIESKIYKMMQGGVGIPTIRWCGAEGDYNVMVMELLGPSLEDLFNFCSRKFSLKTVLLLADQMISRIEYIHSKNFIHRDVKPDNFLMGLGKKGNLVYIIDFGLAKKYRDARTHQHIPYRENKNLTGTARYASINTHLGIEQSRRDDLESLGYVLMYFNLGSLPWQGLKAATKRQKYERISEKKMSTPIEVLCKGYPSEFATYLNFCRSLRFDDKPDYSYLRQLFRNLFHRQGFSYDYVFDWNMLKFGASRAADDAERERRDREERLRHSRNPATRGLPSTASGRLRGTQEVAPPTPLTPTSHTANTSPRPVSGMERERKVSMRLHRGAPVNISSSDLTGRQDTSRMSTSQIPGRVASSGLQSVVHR
# How it was run: as §1
# AURKA = target: T6, AURKA (Homo sapiens, UniProt O14965); assay: Liability panel screening by DSF: AURKA; type: binding; conditions: DSF, 20 µM, n=2; read-out: Mean ΔTM AURKA
# T6 construct: made in house
# T6 sequence (O14965 1-403): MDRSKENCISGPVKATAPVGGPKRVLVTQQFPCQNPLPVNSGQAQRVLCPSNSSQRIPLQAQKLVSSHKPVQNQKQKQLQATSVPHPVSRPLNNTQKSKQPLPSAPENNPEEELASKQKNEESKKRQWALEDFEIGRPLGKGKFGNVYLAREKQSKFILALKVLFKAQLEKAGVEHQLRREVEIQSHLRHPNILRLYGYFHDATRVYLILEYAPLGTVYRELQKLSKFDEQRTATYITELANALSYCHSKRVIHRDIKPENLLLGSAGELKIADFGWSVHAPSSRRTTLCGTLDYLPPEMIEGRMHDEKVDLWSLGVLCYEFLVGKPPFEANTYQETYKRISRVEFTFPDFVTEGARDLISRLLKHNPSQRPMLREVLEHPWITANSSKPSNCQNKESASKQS
# How it was run: as §1
# MAPK1 = target: T7, MAPK1 (Homo sapiens, UniProt P28482); assay: Liability panel screening by DSF: MAPK1; type: binding; conditions: DSF, 20 µM, n=2; read-out: Mean ΔTM MAPK1
# T7 construct: made in house
# T7 sequence (P28482 whole entry, species assumed): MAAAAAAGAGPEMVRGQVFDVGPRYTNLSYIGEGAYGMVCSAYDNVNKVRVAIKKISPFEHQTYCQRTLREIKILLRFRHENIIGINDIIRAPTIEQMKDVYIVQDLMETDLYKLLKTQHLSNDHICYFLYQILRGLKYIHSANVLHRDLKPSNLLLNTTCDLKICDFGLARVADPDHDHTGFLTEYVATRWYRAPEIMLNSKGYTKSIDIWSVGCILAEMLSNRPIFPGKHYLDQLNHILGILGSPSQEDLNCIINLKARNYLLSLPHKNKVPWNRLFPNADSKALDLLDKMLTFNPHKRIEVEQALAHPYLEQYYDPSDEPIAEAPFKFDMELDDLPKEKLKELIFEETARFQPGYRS
# How it was run: as §1
# BRPF1 = target: T8, BRPF1 (Homo sapiens, UniProt P55201); assay: Liability panel screening by DSF: BRPF1; type: binding; conditions: DSF, 20 µM, n=2; read-out: Mean ΔTM BRPF1
# T8 construct: This panel comprised ten highly ligandable kinases and bromodomains; made in house
# T8 sequence (P55201 628-732 limits assumed): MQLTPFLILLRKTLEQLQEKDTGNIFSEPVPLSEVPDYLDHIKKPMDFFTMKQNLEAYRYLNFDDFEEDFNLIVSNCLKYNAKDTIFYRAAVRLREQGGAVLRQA
# How it was run: as §1
smiles,measurement,setting,value
C[C@@H]1Cc2c([nH]c3ccccc23)[C@@H](c2c(F)cc(/C=C/C(=O)O)cc2F)N1CC(C)(C)F [AZD9496],activity at 1 µM,"[1]; Homo sapiens, HeLa, 1 µM, single replicates n=1 to n=5, read-out: ER stress [rel. ATF6 activity]",101%
same,ΔTm at 20 µM,CDK2,-0.07 °C
same,VP16 control [fold reporter gene activity],Gal4-VP16; 1 µM,1.31 fold reporter gene activity and 1.10 fold reporter gene activity and 1.59 fold reporter gene activity
same,ΔTm at 20 µM,BRD4,0.36 °C
same,Mean NFκB response,"[2]; 1 µM, 1,5 h",3183.32 GFP+-cells/confluence ∙ 1000
same,Mean NFκB response,"[2]; 1 µM, 4,5 h",3743.71 GFP+-cells/confluence ∙ 1000
same,Mean NFκB response,"[2]; 1 µM, 7,5 h",6968.05 GFP+-cells/confluence ∙ 1000
same,Mean NFκB response,"[2]; 1 µM, 10,5 h",12962.04 GFP+-cells/confluence ∙ 1000
same,Mean NFκB response,"[2]; 1 µM, 13,5 h",18218.90 GFP+-cells/confluence ∙ 1000
same,Mean NFκB response,"[2]; 1 µM, 16,6 h",22070.92 GFP+-cells/confluence ∙ 1000
same,Mean NFκB response,"[2]; 1 µM, 19,5 h",24828.05 GFP+-cells/confluence ∙ 1000
same,Mean NFκB response,"[2]; 1 µM, 22,5 h",27011.69 GFP+-cells/confluence ∙ 1000
same,Mean NFκB response,"[2]; 1 µM, 3 h",3319.11 GFP+-cells/confluence ∙ 1000
same,Mean NFκB response,"[2]; 1 µM, 6 h",4897.81 GFP+-cells/confluence ∙ 1000
same,Mean NFκB response,"[2]; 1 µM, 9 h",10141.67 GFP+-cells/confluence ∙ 1000
same,Mean NFκB response,"[2]; 1 µM, 12 h",15818.86 GFP+-cells/confluence ∙ 1000
same,Mean NFκB response,"[2]; 1 µM, 15 h",20214.01 GFP+-cells/confluence ∙ 1000
same,Mean NFκB response,"[2]; 1 µM, 18 h",23720.26 GFP+-cells/confluence ∙ 1000
same,Mean NFκB response,"[2]; 1 µM, 21 h",26076.44 GFP+-cells/confluence ∙ 1000
same,Mean NFκB response,"[2]; 1 µM, 24 h",27738.19 GFP+-cells/confluence ∙ 1000
same,NF-κB activity (inflammatory response to ionomycin/PMA),"[2]; HEK293 NF-κB reporter cells, compounds at recommended concentrations, imaged over 24 h, n = 3",reducing the inflammatory response
same,Apoptosis induction [AI],HEK293T cells [3]; 1 µM,0.64 and 1.56 and 0.90 and 1.15 and 1.90 and 3.05
same,apoptosis induction,"HEK293T cells [3]; budesonide (3 µM), others at tested concentration",slight apoptosis induction
same,ΔTm at 20 µM,ABL1,-0.24 °C
same,ΔTm at 20 µM,GSK3B,0 °C
same,Growth rate [GR],HEK293T cells [4]; 1 µM,1.04 and 0.96 and 0.95 and 1.23 and 0.78 and 0.74 (3×) and 1.43 and 4.43
same,Necrosis induction [NI],HEK293T cells [5]; 1 µM,1.09 and 0.96 and 0.78 and 2.03
same,ΔTm at 20 µM,CSNK1D,0.64 °C
same,ΔTm at 20 µM,AURKA,-0.16 °C
same,ΔTm at 20 µM,MAPK1,0.55 °C
same,ΔTm at 20 µM,BRPF1,-4.53 °C
CC/C(=C(\c1ccc(O)cc1)c1ccc(OCCN(C)C)cc1)c1ccccc1 [(Z)-4-Hydroxytamoxifen],ATF6 activity (tunicamycin-induced endoplasmic reticulum stress),[1]; 0.3 µM,mediated resolution of the tunicamycin-induced endoplasmic reticulum stress
same,ATF6 activity (tunicamycin-induced endoplasmic reticulum stress),[1]; 3 µM,lacked this effect
same,activity at 0.3 µM,"[1]; Homo sapiens, HeLa, 0.3 µM, single replicates n=1 to n=5, read-out: ER stress [rel. ATF6 activity]",51%
same,ΔTm at 20 µM,CDK2,-0.23 °C
same,VP16 control [fold reporter gene activity],Gal4-VP16; 0.3 µM,1.09 fold reporter gene activity and 0.88 fold reporter gene activity and 1.33 fold reporter gene activity
same,VP16 control [fold reporter gene activity],Gal4-VP16; 3 µM,1.11 fold reporter gene activity and 1.04 fold reporter gene activity and 1.49 fold reporter gene activity
same,ΔTm at 20 µM,BRD4,-3.37 °C
same,Mean NFκB response,"[2]; 0.3 µM, 1,5 h",2504.77 GFP+-cells/confluence ∙ 1000
same,Mean NFκB response,"[2]; 0.3 µM, 4,5 h",3089.76 GFP+-cells/confluence ∙ 1000
same,Mean NFκB response,"[2]; 0.3 µM, 7,5 h",8223.00 GFP+-cells/confluence ∙ 1000
same,Mean NFκB response,"[2]; 0.3 µM, 10,5 h",20009.52 GFP+-cells/confluence ∙ 1000
same,Mean NFκB response,"[2]; 0.3 µM, 13,5 h",28937.88 GFP+-cells/confluence ∙ 1000
same,Mean NFκB response,"[2]; 0.3 µM, 16,6 h",35283.33 GFP+-cells/confluence ∙ 1000
same,Mean NFκB response,"[2]; 0.3 µM, 19,5 h",40116.67 GFP+-cells/confluence ∙ 1000
same,Mean NFκB response,"[2]; 0.3 µM, 22,5 h",43200.00 GFP+-cells/confluence ∙ 1000
same,Mean NFκB response,"[2]; 0.3 µM, 3 h",2555.89 GFP+-cells/confluence ∙ 1000
same,Mean NFκB response,"[2]; 0.3 µM, 6 h",4572.00 GFP+-cells/confluence ∙ 1000
same,Mean NFκB response,"[2]; 0.3 µM, 9 h",14658.14 GFP+-cells/confluence ∙ 1000
same,Mean NFκB response,"[2]; 0.3 µM, 12 h",24637.27 GFP+-cells/confluence ∙ 1000
same,Mean NFκB response,"[2]; 0.3 µM, 15 h",32269.00 GFP+-cells/confluence ∙ 1000
same,Mean NFκB response,"[2]; 0.3 µM, 18 h",37590.00 GFP+-cells/confluence ∙ 1000
same,Mean NFκB response,"[2]; 0.3 µM, 21 h",41653.33 GFP+-cells/confluence ∙ 1000
same,Mean NFκB response,"[2]; 0.3 µM, 24 h",44413.33 GFP+-cells/confluence ∙ 1000
same,Mean NFκB response,"[2]; 3 µM, 1,5 h",2613.90 GFP+-cells/confluence ∙ 1000
same,Mean NFκB response,"[2]; 3 µM, 4,5 h",3334.14 GFP+-cells/confluence ∙ 1000
same,Mean NFκB response,"[2]; 3 µM, 7,5 h",7514.38 GFP+-cells/confluence ∙ 1000
same,Mean NFκB response,"[2]; 3 µM, 10,5 h",19242.21 GFP+-cells/confluence ∙ 1000
same,Mean NFκB response,"[2]; 3 µM, 13,5 h",28764.40 GFP+-cells/confluence ∙ 1000
same,Mean NFκB response,"[2]; 3 µM, 16,6 h",35561.15 GFP+-cells/confluence ∙ 1000
same,Mean NFκB response,"[2]; 3 µM, 19,5 h",40217.80 GFP+-cells/confluence ∙ 1000
same,Mean NFκB response,"[2]; 3 µM, 22,5 h",43818.60 GFP+-cells/confluence ∙ 1000
same,Mean NFκB response,"[2]; 3 µM, 3 h",2770.52 GFP+-cells/confluence ∙ 1000
same,Mean NFκB response,"[2]; 3 µM, 6 h",4451.37 GFP+-cells/confluence ∙ 1000
same,Mean NFκB response,"[2]; 3 µM, 9 h",13511.36 GFP+-cells/confluence ∙ 1000
same,Mean NFκB response,"[2]; 3 µM, 12 h",24240.37 GFP+-cells/confluence ∙ 1000
same,Mean NFκB response,"[2]; 3 µM, 15 h",32735.51 GFP+-cells/confluence ∙ 1000
same,Mean NFκB response,"[2]; 3 µM, 18 h",38442.69 GFP+-cells/confluence ∙ 1000
same,Mean NFκB response,"[2]; 3 µM, 21 h",42295.79 GFP+-cells/confluence ∙ 1000
same,Mean NFκB response,"[2]; 3 µM, 24 h",44964.03 GFP+-cells/confluence ∙ 1000
same,Apoptosis induction [AI],HEK293T cells [3]; 0.3 µM,0.84 and 1.40 and 1.81 and 1.38 and 0.62 and 0.65
same,Apoptosis induction [AI],HEK293T cells [3]; 3 µM,1.07 and 1.34 and 1.98 and 1.60 and 1.04 and 1.22
same,ΔTm at 20 µM,ABL1,0.29 °C
same,ΔTm at 20 µM,GSK3B,-1.45 °C
same,Growth rate [GR],HEK293T cells [4]; 0.3 µM,1.08 and 2.89 and 1.33 and 1.37 and 0.91 and 0.88 and 0.61 and 1.06 and 2.68 and 37.77
same,Growth rate [GR],HEK293T cells [4]; 3 µM,0.97 and 4.28 and 1.10 and 0.79 and 0.56 and 0.41 and 0.43 and 1.54 and 1.12 and 39.66
same,Necrosis induction [NI],HEK293T cells [5]; 0.3 µM,0.97 and 1.43 and 0.88 and 1.20
same,Necrosis induction [NI],HEK293T cells [5]; 3 µM,1.55 and 1.35 and 1.14 and 1.44
same,ΔTm at 20 µM,CSNK1D,0.12 °C
same,ΔTm at 20 µM,AURKA,0.07 °C
same,ΔTm at 20 µM,MAPK1,0.0336 °C
same,ΔTm at 20 µM,BRPF1,-1.98 °C

# — PMC11790914, “Chemogenomics for steroid hormone receptors (NR3)” (Communications Chemistry, 2025)
